Measured values as given in patent US20230233650A1, “NOVEL FATTY ACID MODIFIED UROCORTIN 2 DERIVATIVES AND THE USES THEREOF” (Novo Nordisk A/S, priority 2021, published 2023).
Numbered stars: 1 amine (or outer) side, 2 acyl side, 3 side chain; on linkers, the order of the positions; unused ones are H or OH. Side chains are listed from the residue outwards. Peptide text beside a SMILES is read from it. * marks the point of attachment. C20 diacid = O=C(O)CCCCCCCCCCCCCCCCCCC(=O)*; γGlu = O=C(O)[C@H](CCC(=O)[*:2])N[*:1]; AEEA = NCCOCCOCC(=O)O

Legend:
[1] = Pharmacokinetic study in minipigs after intravenous administration; type: in vivo; conditions: female, Göttingen, minipig, plasma, i.v., 2 nmol/kg, harmonic mean, read-out: Terminal half-life (converted)
Source text: The purpose of this investigation was to determine the in vivo half-life of the compounds of the invention after i.v. administration to minipigs using a pharmacokinetic (PK) study in Göttingen Minipigs assessing terminal half-life. The expression ‘terminal half-life’ as used herein, and means the time period required to reduce the plasma concentration by 50%, measured after the initial distribution phase.
Animals and housing: Female Göttingen Minipigs, weighing approximately 15-25 kg, were obtained from Ellegaard Minipigs, Dalmose Denmark. The minipigs were housed individually in the Animal Unit at BioAdvice A/S, ∅lstykke Denmark (later Minerva Imaging A/S) and were fed restrictedly twice daily with Altromin 9033 (Chr. Petersen A/S, Ringsted, Denmark). […]
Administration of peptides and dosing solutions: There were no food restrictions during the study and the animals had ad libitum access to water during the whole study period. […] The plasma samples were analysed as described below.
Quantitative Assay for Plasma Samples: The test compound was assayed in plasma by turbulent flow chromatography coupled to liquid chromatography mass spectrometric (LCMS) detection. The selectivity of the method allowed various test compounds to be quantitated in one sample, e.g. cassette dosing. […]

[2] = target: T1, Human CRF2 receptor (Homo sapiens, UniProt Q13324); assay: CRF2 receptor binding, scintillation proximity assay (SPA); conditions: displacement of [125I]-Sauvagine, CHO-K1 cell membranes
T1 construct: host or cells: CHO-K1 (membrane preparation)
T1 sequence (Q13324 1-411): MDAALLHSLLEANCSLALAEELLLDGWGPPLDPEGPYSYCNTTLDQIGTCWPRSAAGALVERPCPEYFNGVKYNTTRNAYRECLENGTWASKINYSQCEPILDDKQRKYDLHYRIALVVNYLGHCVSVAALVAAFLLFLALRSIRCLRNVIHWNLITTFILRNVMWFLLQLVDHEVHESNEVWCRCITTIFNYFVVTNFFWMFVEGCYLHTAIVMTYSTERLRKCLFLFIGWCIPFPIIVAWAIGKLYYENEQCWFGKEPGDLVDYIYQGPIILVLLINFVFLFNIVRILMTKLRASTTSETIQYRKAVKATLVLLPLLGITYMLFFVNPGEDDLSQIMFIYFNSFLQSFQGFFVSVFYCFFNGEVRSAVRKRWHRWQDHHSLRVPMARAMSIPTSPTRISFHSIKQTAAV
Experimental: The purpose of this example was to test the in vitro binding of the compounds of the invention to receptor subtypes CRF1 and CRF2. The in vitro binding of the compounds was determined in a scintillation proximity assay (SPA) as described below. The native, human Ucn1 and Ucn2 peptides are included as references. Scintillation Proximity Assay: […] Both cell lines were cultured at 37° C. in a humidified atmosphere with 5% CO2. […] Membranes were prepared by the following protocol: cultured cells were washed twice with cold Dulbecco’s phosphate buffered saline and detached using TrypLE™ (ThermoFisher) and transferred to tubes and centrifuged for 5 minutes at 1000 g at +4° C. Pellets were resuspended in ice cold homogenization buffer (20 mM Hepes pH 7.1, 5 mM MgCl2, 1 mg/ml Bacitracin with 2 complete EDTA-free protease inhibitor cocktail tablets/50 ml (Roche)) and then homogenized for 30 seconds using a Ultra-Turrax T25 tissue homogenizer (IKA) at medium speed. The homogenate was centrifuged at 35,000 g for 15 minutes at +4° C. using an ultracentrifuge, and the supernatant was discarded, and fresh homogenization buffer was added. Homogenization of the pellet was repeated a total of three times. The final pellet was resuspended in a few millilitres of homogenization buffer and protein concentration was determined using the Bradford method. The membrane preparation was transferred to cryotubes, and the aliquots were stored at -80° C. Each membrane preparation was subsequently titrated to give an appropriate window in the assay. Test procedure: […] Plates were sealed and incubated at 25° C. for 2 hours in a plate shaker set at 400 rpm and thereafter centrifuged at 1500 rpm for 10 minutes. SPA plates were let to stand at room temperature for about 16 hours prior to reading on microplate scintillation counter. Displacement of radioligand was measured as reduction in luminescence, and IC50 values were calculated by nonlinear regression analysis of four parameter sigmoidal dose-response curves.

SMILES | half-life [1] [h] | IC50 [2] [nM]
CC[C@H](C)[C@H](NC(=O)[C@H](CCC(=O)O)NC(=O)[C@H](C)NC(=O)[C@H](CC(N)=O)NC(=O)[C@@H](NC(=O)[C@@H](NC(=O)[C@H](C)NC(=O)[C@H](CCC(N)=O)NC(=O)[C@H](CCC(=O)O)NC(=O)[C@H](CCCNC(=N)N)NC(=O)[C@H](C)NC(=O)[C@H](C)NC(=O)[C@H](CCCNC(=N)N)NC(=O)[C@H](C)NC(=O)[C@H](CCCNC(=N)N)NC(=O)[C@H](C)NC(=O)[C@H](CCC(N)=O)NC(=O)[C@H](CCC(=O)O)NC(=O)[C@H](CC(C)C)NC(=O)[C@H](CC(C)C)NC(=O)[C@@H](NC(=O)[C@H](CCC(N)=O)NC(=O)[C@H](CC(C)C)NC(=O)[C@H](CC(C)C)NC(=O)CNC(=O)[C@@H](NC(=O)[C@@H]1CCCN1C(=O)[C@@H](NC(=O)[C@H](CC(=O)O)NC(=O)[C@H](CC(C)C)NC(=O)[C@H](CO)NC(=O)[C@H](CC(C)C)NC(=O)[C@@H](NC(=O)[C@@H](NC(=O)[C@@H](N)CCCCNC(=O)COCCOCCNC(=O)COCCOCCNC(=O)CC[C@H](NC(=O)CC[C@H](NC(=O)CC[C@H](NC(=O)CCCCCCCCCCCCCCCCCCC(=O)O)C(=O)O)C(=O)O)C(=O)O)[C@@H](C)CC)C(C)C)C(C)C)[C@@H](C)CC)[C@@H](C)CC)[C@@H](C)O)[C@@H](C)O)C(=O)N[C@@H](CC(C)C)C(=O)N[C@@H](C)C(=O)N[C@@H](CCC(=O)O)C(=O)N[C@H](C(N)=O)C(C)C [Compound 3] (H-K([AEEA-AEEA-γGlu-γGlu-γGlu-C20 diacid])IVLSLDVPIGLLQILLEQARARAAREQATTNAEILAEV-NH2) | 96 | 1.14
CC[C@H](C)[C@H](NC(=O)[C@H](CCC(=O)O)NC(=O)[C@H](C)NC(=O)[C@H](CC(N)=O)NC(=O)[C@@H](NC(=O)[C@@H](NC(=O)[C@H](C)NC(=O)[C@H](CCC(N)=O)NC(=O)[C@H](CCC(=O)O)NC(=O)[C@H](CCCNC(=N)N)NC(=O)[C@H](C)NC(=O)[C@H](C)NC(=O)[C@H](CCCNC(=N)N)NC(=O)[C@H](C)NC(=O)[C@H](CCCNC(=N)N)NC(=O)[C@H](C)NC(=O)[C@H](CCC(N)=O)NC(=O)[C@H](CCC(=O)O)NC(=O)[C@H](CC(C)C)NC(=O)[C@H](CC(C)C)NC(=O)[C@@H](NC(=O)[C@H](CCC(N)=O)NC(=O)[C@H](CC(C)C)NC(=O)[C@H](CC(C)C)NC(=O)CNC(=O)[C@@H](NC(=O)[C@@H]1CCCN1C(=O)[C@@H](NC(=O)[C@H](CC(=O)O)NC(=O)[C@H](CC(C)C)NC(=O)[C@H](CO)NC(=O)[C@H](CC(C)C)NC(=O)[C@@H](NC(=O)[C@@H](NC(=O)[C@@H](N)CCCCNC(=O)COCCOCCNC(=O)COCCOCCNC(=O)CC[C@H](NC(=O)CC[C@H](NC(=O)CC[C@H](NC(=O)CCCCCCCCCCCCCCCCCCC(=O)O)C(=O)O)C(=O)O)C(=O)O)[C@@H](C)CC)C(C)C)C(C)C)[C@@H](C)CC)[C@@H](C)CC)[C@@H](C)O)[C@@H](C)O)C(=O)N[C@@H](CC(C)C)C(=O)N[C@@H](CCC(=O)O)C(=O)N[C@@H](CCCNC(=N)N)C(=O)N[C@H](C(N)=O)C(C)C [Compound 4] (H-K([AEEA-AEEA-γGlu-γGlu-γGlu-C20 diacid])IVLSLDVPIGLLQILLEQARARAAREQATTNAEILERV-NH2) | 103 | 1.47
